Holding throughout (test): NCI tumour cell line growth inhibition, 48 h
The test system of test [1] is P388 leukemia.
The test system of test [2] is KM20L2 colon.
For test [3], the system named is XF 498 CNS.
For test [4], the system named is CAKI-1 renal.
Test [5] deals with SR leukemia.
In test [6] the test system is MDA-MB-231 breast.
Test [7] concerns TK-10 renal.
In test [8] the test system is M14 melanoma.

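Dose response: 5 concentrations. Exposure: 48 h. Format: 96-well plates. Endpoint: linear interpolation; highest concentration if not reached. Here, GI50 denotes the concentration required for 50% inhibition of growth. TGI marks complete inhibition of growth.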 Where a SMILES comes first, the peptide text is derived from it. [ ]: non-standard residue; d: D form. The star is where a group is joined. ξ: configuration not given here. X16 = COC1=CC(=O)N(C(=O)C(O*)C(C)C)C1Cc1ccccc1; ξNMe2Val = CC(C)C(C(=O)*)N(C)C; NMeV = CN[CH](C(=O)O)C(C)C

Consider `Nc1cc2c(cc1[N+](=O)[O-])[nH]c1c(-c3ccccc3)nccc12`, for which the TGI in test [1] is 41 µM; in test [2], above 82.8 µM; in test [3], above 100 µM.

As to `COC1=CC(=O)N(C(=O)C(OC(=O)C2CCCN2C(=O)C2CCCN2C(=O)C(C(C)C)N(C)C(=O)C(NC(=O)C(C(C)C)N(C)C)C(C)C)C(C)C)C1Cc1ccccc1` (stereo unspecified) (ξNMe2Val-V[NMeV]PP-X16; configuration not given here), the GI50 in test [2], in test [4] and in test [3] was below 0.0004 µM throughout. The TGI in test [4] was above 4 µM.

With `CC1(C)CCc2c(cc3c(c2O)CCC(C)(C)O3)O1`, the TGI in test [5], in test [6], in test [7], in test [8] and in test [4] was above 100 µM throughout.

Regarding `CCOc1ncn(-c2ccc(NC(=S)Nc3cccc(O)c3)cc2)n1`, the TGI in test [5], in test [6], in test [7] and in test [8] was above 100 µM throughout.

For `ClCCN(CCCl)Cc1ccc(Nc2ccnc3cc(Cl)ccc23)cc1`, the results for the GI50 in test [5], in test [6] and in test [7] were 0.269 µM, 1.66 µM and 2.42 µM, respectively. Moreover, the results for the TGI in test [5], in test [6] and in test [7] were 2.78 µM, 3.49 µM and 6.22 µM, respectively.

`COc1ccc2c(O)c3[n+](cc2c1OC)CCc1cc2c(cc1-3)OCO2`: the TGI in test [5], in test [6], in test [7], in test [8] and in test [4] was above 100 µM in each case.

On to `C=C/C(C)=C/[C@H](C)C(=O)C[C@H](O)CC1CC(=O)NC(=O)C1`, for which the TGI in test [1] is above 100 µM; in test [2], above 100 µM; in test [4], above 100 µM; in test [3], 9.91 µM.

Regarding `Cc1ccc(OP2(=O)Oc3ccc4ccccc4c3CN2c2ccc(Cl)cc2)cc1C` (stereo unspecified), the TGI in test [1], in test [2], in test [4] and in test [3] was above 100 µM in each case.

Turning to `COC[C@H]1C(=O)NCC(=O)N2NCCC[C@H]2C(=O)N(O)[C@H](C)C(=O)O[C@@H](C(C)C)[C@H](NC(=O)[C@](C)(O)[C@]2(O)CC[C@@H](CC(C)C)[C@H](C)O2)C(=O)N2NCCC[C@@H]2C(=O)N1O`, the GI50 in test [5] is 0.0118 µM; in test [6], below 0.0111 µM; in test [7], 0.0181 µM. For the same compound, the TGI in test [5] was 0.0555 µM; in test [6], 0.0432 µM; in test [7] it was 0.0322 µM.

The record behind these values is PubChem BioAssay (NCI).
